Active and inactive are the calls of the source.
What was measured:
Phosphomannomutase 2 = Phosphomannomutase 2 (Homo sapiens, UniProt O15305); experiment: Counter screen SAR assay for PMM2 inhibitors via a fluorescence intensity assay. [Related pubchem assays (depositor defined):AID1545, AID1574]
[1] = target: FAD-linked sulfhydryl oxidase ALR (Homo sapiens, UniProt P55789); experiment: ALR-catalysed DTT oxidation blockers – biochemical, H2O2 detection, luminescence, cherry-pick, dose response (AID 493248)
FAD-linked sulfhydryl oxidase ALR, sequence (P55789 whole entry): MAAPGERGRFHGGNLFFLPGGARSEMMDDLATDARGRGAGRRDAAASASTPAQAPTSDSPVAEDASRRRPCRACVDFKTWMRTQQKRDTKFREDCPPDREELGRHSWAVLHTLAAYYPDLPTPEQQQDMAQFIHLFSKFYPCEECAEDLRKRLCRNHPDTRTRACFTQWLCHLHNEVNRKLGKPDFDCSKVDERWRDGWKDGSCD

[2] = target: T1, DNA dC->dU-editing enzyme APOBEC-3G (Homo sapiens, UniProt Q9HC16); experiment: SAR analysis of small molecule inhibitors of APOBEC3G DNA Deaminase via a fluorescence-based single-stranded DNA deaminase assay - Set 2.; format: functional; settings: read-out: IC50_Mean
T1 sequence (Q9HC16 whole entry): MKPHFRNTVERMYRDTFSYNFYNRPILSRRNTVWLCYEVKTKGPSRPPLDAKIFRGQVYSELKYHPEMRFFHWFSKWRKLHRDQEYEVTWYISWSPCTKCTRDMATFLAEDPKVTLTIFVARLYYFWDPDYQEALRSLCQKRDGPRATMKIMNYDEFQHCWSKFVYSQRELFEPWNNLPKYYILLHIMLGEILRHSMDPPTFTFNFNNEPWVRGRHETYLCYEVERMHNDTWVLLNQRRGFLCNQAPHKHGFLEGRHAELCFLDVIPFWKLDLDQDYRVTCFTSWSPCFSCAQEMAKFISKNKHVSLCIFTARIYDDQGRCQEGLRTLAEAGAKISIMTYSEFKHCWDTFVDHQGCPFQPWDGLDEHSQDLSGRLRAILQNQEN

[3] = target: Luciferin 4-monooxygenase (Photinus pyralis, UniProt P08659); experiment: inhibition of purified Photinus pyralis luciferase – biochemical, luminescence, dose response (AID 1891)
Leucine aminopeptidase = target: T2, Leucine aminopeptidase (Plasmodium falciparum 3D7, UniProt Q8IL11); experiment: P. falciparum M17LAP inhibitors, primary screen, biochemical, fluorogenic H-Leu-NHMec substrate, 1536-well (AID 1619); format: functional
T2 sequence (Q8IL11 whole entry): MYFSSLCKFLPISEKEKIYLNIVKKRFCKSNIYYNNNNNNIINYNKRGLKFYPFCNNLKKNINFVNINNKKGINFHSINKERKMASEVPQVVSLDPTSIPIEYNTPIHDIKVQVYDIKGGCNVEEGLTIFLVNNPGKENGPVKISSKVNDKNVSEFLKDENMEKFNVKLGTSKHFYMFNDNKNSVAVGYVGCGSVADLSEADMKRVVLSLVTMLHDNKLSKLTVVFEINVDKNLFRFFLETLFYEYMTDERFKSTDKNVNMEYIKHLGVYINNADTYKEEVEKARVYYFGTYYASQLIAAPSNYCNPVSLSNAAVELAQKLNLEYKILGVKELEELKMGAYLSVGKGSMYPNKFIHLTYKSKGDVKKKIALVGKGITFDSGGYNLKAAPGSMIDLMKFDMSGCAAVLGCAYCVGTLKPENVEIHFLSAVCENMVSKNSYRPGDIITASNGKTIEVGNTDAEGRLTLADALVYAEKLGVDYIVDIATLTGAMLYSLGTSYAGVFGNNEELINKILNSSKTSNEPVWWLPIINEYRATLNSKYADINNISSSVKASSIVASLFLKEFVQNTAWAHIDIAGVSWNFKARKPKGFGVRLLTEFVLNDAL

[4] = target: T3, DNA dC->dU-editing enzyme APOBEC-3A (Homo sapiens, UniProt P31941); experiment: A3A deaminase inhibition for selectivity – biochemical, dose response (AID 504722); format: functional
T3 sequence (P31941 whole entry): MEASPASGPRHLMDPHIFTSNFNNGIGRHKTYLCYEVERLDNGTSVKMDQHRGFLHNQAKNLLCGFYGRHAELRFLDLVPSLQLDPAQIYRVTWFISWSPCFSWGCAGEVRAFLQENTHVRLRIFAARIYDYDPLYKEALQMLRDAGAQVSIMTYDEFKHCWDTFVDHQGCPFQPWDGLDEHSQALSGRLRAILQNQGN

[5] = target: T4, Mannose-6-phosphate isomerase (Homo sapiens, UniProt P34949); experiment: phosphomannose isomerase inhibition – biochemical, fluorescence intensity, confirmation (AID 1535)
T4 sequence (P34949 whole entry): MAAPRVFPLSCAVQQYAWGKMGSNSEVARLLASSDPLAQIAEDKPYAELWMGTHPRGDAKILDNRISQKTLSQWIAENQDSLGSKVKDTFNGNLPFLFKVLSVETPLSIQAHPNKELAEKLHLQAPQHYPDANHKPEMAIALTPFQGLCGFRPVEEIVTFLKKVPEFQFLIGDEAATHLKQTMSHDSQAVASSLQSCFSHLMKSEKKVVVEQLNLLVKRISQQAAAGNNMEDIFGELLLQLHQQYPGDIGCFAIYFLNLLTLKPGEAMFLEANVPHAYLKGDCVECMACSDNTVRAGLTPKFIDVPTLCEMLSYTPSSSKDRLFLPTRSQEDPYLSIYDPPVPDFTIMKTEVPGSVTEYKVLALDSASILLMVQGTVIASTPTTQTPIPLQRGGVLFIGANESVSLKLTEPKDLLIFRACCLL

[6] = target: T3, DNA dC->dU-editing enzyme APOBEC-3A; experiment: SAR analysis of small molecule inhibitors of APOBEC3A DNA Deaminase via a fluorescence-based single-stranded DNA deaminase assay.; format: functional; settings: read-out: IC50_Mean
[7] = target: T1, DNA dC->dU-editing enzyme APOBEC-3G; experiment: inhibition of APOBEC3G ssDNA deamination – biochemical, fluorescence, single-stranded DNA substrate, SAR follow-up (AID 602136); format: functional; settings: read-out: IC50_Mean
[8] = target: T3, DNA dC->dU-editing enzyme APOBEC-3A; experiment: SAR analysis of small molecule inhibitors of APOBEC3A DNA Deaminase via a fluorescence-based single-stranded DNA deaminase assay - Set 2.; format: functional; settings: read-out: IC50_Mean
[9] = target: T1, DNA dC->dU-editing enzyme APOBEC-3G; experiment: Dose Response confirmation of small molecule APOBEC3G DNA Deaminase Inhibitors via a fluorescence-based single-stranded DNA deaminase assay. [Related pubchem assays (depositor defined):AID493012, AID493028]; format: functional
[10] = target: T5, Ubiquitin-conjugating enzyme E2 N (Homo sapiens, UniProt P61088); format: functional;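 also: Dose-response confirmation in a TR-FRET assay detecting UBC13-driven polyubiquitin chain formation, inhibition measured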
T5 sequence (P61088 whole entry): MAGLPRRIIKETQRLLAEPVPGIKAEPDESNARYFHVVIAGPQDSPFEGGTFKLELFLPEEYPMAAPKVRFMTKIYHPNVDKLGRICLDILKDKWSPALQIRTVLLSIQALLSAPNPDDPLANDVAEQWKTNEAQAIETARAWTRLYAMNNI

[11] = target: T6, High affinity choline transporter 1 (Homo sapiens, UniProt Q9GZV3); experiment: human choline transporter potentiators, potency – cell-based, 10-point CRC, membrane potential dye, dose response (AID 602376); format: functional
T6 sequence (Q9GZV3 whole entry): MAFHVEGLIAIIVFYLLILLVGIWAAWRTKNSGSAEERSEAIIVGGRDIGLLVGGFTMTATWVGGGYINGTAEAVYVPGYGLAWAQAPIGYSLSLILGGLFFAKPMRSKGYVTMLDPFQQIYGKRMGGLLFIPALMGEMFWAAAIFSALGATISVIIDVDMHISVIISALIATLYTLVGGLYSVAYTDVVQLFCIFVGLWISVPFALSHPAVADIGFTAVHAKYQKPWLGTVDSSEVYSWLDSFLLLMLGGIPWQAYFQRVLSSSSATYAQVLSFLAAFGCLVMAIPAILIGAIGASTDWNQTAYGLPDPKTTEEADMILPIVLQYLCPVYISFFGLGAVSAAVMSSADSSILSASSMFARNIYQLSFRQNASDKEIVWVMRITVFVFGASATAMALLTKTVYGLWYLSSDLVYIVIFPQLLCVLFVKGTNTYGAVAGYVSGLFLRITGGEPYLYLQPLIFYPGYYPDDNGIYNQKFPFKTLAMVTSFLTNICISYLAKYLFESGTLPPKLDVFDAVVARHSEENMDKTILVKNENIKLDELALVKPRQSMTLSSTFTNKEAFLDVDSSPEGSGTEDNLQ

[12] = target: 26S proteasome non-ATPase regulatory subunit 14 (Homo sapiens, UniProt O00487); experiment: inhibition of proteasome subunit RPN11 – biochemical, fluorescence polarization, uHTS hits, confirmation (AID 602368); format: functional
Prothrombin = Prothrombin (Bos taurus, UniProt P00735); experiment: thrombin protease inhibitors – biochemical, fluorescence polarization, uHTS hits, dose response (AID 602369); format: functional
[13] = target: 72 kDa type IV collagenase (Homo sapiens, UniProt P08253); experiment: Dose Response validation of uHTS RPN11 inhibitor hits using a MMP-2 Fluorescence assay.; format: functional
[14] = target: Multidrug resistance protein CDR1 (Candida albicans, UniProt P43071); experiment: inhibition of Nile Red efflux via Candida CDR1 – S. cerevisiae AD1-8u, singleplex, Cherry Pick1 hits, dose response (AID 588606); format: functional
[15] = suppression of NO production in INS-1E cells – cell-based, Griess absorbance, dry powder, set 3, dose response (AID 488870); format: functional; settings: Rattus norvegicus
INS1 [16] = experiment: suppression of NO production in INS-1E cells – cell-based, Griess absorbance, dry powder, set 2, dose response (AID 488868); format: functional; settings: Rattus norvegicus
INS1 [17] = experiment: beta-cell survival under cytokine stress – INS-1E, ATP luminescence, dry powder, dose response (AID 488844); format: functional, cell-based; settings: Rattus norvegicus
INS1 [18] = experiment: INS-1E mitochondrial potential rescue under cytokines – cell-based, JC-1 fluorescence ratio, dry powder, dose response (AID 488931); format: functional; settings: Rattus norvegicus
[19] = target: Casein kinase I isoform delta (Homo sapiens, UniProt P48730); format: functional;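 also: measured as one member (CSNK1D) of a kinome panel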
[20] = target: Serine/threonine-protein kinase D3 (Homo sapiens, UniProt O94806); format: functional;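 also: determined within a kinase panel screen, with PRKCN as the panel member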
[21] = target: Mitogen-activated protein kinase kinase kinase kinase 4 (Homo sapiens, UniProt O95819); format: functional
Mitogen-activated protein kinase kinase kinase kinase 4, sequence (O95819 whole entry): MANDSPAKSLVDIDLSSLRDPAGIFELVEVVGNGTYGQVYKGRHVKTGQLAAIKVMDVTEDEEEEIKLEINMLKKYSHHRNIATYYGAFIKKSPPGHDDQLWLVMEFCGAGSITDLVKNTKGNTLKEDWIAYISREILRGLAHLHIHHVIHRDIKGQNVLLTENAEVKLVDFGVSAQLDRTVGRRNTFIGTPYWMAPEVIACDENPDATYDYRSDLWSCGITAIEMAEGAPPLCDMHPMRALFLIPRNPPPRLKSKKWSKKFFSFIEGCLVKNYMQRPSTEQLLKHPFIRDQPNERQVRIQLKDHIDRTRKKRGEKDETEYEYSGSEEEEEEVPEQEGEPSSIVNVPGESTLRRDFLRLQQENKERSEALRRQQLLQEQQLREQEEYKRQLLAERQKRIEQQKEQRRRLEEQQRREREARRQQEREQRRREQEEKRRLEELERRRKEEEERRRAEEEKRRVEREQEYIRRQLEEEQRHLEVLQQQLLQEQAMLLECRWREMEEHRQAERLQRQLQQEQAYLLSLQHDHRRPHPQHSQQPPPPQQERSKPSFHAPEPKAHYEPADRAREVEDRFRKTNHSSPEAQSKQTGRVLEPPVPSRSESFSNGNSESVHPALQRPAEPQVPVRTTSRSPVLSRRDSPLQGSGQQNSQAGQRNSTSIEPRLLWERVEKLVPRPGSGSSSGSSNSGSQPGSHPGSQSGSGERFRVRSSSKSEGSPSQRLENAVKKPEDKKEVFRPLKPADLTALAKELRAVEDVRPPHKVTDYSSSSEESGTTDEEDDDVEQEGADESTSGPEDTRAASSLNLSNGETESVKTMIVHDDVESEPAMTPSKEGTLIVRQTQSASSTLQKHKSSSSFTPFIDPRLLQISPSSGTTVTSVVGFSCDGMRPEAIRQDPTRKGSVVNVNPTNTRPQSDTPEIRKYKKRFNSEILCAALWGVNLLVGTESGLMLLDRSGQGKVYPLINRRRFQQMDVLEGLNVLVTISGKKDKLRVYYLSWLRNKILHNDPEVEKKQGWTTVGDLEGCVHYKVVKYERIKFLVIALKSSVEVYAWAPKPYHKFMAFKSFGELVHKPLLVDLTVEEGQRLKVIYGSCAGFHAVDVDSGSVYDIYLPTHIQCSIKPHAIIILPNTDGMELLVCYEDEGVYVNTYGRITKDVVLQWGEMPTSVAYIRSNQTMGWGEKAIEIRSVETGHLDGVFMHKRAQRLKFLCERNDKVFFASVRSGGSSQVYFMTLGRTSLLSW

[22] = target: Dual specificity tyrosine-phosphorylation-regulated kinase 1A (Homo sapiens, UniProt Q13627); format: functional;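 also: measured against DYRK1A as one member of a broad kinome profiling panel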
[23] = target: Serine/threonine-protein kinase PLK3 (Homo sapiens, UniProt Q9H4B4); format: functional
[24] = target: Vascular endothelial growth factor receptor 3 (Homo sapiens, UniProt P35916); format: functional;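 also: value from a kinome-wide profiling panel, with FLT4 as the panel member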
[25] = target: Ribosomal protein S6 kinase beta-1 (Homo sapiens, UniProt P23443); format: functional;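 also: measured as one member of a kinome-wide profiling panel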
Ribosomal protein S6 kinase beta-1, sequence (P23443 whole entry): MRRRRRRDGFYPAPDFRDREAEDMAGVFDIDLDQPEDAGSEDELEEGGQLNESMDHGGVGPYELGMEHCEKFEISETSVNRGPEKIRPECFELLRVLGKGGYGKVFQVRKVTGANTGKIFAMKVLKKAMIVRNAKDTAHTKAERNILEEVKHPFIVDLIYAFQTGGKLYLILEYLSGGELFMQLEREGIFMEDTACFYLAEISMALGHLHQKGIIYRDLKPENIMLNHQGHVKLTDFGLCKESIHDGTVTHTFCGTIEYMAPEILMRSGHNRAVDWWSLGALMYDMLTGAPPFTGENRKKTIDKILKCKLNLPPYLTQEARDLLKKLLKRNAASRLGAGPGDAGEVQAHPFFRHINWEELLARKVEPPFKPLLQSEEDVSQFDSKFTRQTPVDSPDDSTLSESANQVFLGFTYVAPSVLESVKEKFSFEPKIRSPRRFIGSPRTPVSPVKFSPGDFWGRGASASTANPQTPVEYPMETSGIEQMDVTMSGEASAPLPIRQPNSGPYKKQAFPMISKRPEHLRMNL

[26] = target: Serine/threonine-protein kinase PLK1 (Homo sapiens, UniProt P53350); format: functional;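 also: PLK1 measured as one member of a kinome-wide profiling panel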
[27] = target: Serine/threonine-protein kinase Nek2 (Homo sapiens, UniProt P51955); format: functional
[28] = target: Mitogen-activated protein kinase kinase kinase kinase 2 (Homo sapiens, UniProt Q12851); format: functional;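 also: measured as one member of a kinome-wide kinase panel, with MAP4K2 as the panel entry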
Mitogen-activated protein kinase kinase kinase kinase 2, sequence (Q12851 whole entry, canonical isoform): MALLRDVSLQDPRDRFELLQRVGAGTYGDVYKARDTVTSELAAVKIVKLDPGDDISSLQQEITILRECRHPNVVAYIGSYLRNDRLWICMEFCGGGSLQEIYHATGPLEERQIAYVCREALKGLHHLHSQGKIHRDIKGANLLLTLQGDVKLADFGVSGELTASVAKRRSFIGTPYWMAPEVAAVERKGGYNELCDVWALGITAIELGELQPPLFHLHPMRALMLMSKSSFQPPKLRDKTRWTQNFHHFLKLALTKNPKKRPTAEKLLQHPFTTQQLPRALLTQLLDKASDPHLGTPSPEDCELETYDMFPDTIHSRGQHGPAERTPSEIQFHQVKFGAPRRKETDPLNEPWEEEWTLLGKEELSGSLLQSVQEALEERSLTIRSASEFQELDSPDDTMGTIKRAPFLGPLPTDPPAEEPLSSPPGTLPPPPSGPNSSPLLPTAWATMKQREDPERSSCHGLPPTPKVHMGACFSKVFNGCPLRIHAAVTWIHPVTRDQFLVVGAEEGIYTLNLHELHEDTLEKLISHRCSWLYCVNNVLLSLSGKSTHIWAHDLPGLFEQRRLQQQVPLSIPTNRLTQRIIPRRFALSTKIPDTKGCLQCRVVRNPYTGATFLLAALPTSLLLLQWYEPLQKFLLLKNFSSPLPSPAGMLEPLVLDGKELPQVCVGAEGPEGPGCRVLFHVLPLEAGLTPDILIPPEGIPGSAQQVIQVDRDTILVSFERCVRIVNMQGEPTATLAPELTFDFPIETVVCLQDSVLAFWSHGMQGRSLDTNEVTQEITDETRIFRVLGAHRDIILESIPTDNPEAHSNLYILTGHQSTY

[29] = target: Casein kinase I isoform alpha (Homo sapiens, UniProt P48729); format: functional
Casein kinase I isoform alpha, sequence (P48729 whole entry, canonical isoform): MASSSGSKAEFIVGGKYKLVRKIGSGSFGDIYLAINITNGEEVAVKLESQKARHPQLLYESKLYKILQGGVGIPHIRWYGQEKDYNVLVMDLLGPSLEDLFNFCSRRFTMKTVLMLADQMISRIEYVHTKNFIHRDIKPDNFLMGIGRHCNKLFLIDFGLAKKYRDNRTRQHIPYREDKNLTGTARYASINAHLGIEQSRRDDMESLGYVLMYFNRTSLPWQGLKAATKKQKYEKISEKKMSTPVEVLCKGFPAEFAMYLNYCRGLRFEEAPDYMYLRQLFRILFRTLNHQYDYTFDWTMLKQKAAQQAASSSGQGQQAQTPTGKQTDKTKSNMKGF

[30] = target: Platelet-derived growth factor receptor alpha (Homo sapiens, UniProt P16234); experiment: Navigating the Kinome. Panel member name: PDGFRA; format: functional
[31] = target: Tyrosine-protein kinase BTK (Homo sapiens, UniProt Q06187); format: functional
[32] = target: Dual specificity protein kinase CLK4 (Homo sapiens, UniProt Q9HAZ1); format: functional
Dual specificity protein kinase CLK4, sequence (Q9HAZ1 whole entry): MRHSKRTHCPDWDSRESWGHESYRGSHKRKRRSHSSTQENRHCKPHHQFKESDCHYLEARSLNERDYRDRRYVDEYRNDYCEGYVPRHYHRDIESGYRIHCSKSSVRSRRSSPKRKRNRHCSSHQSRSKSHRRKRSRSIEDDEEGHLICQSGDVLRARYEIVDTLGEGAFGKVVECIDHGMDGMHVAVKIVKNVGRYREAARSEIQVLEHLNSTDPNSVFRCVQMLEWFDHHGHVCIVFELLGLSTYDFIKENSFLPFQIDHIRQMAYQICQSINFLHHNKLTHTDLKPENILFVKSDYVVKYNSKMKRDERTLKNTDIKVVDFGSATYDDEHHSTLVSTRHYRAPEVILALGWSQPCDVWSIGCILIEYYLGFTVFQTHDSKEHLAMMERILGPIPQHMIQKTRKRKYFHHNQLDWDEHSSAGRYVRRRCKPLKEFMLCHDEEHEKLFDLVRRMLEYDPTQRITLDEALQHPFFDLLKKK

[33] = target: Tyrosine-protein kinase ABL1 (Homo sapiens, UniProt P00519); format: functional
[34] = target: Dual specificity tyrosine-phosphorylation-regulated kinase 1B (Homo sapiens, UniProt Q9Y463); experiment: Navigating the Kinome. Panel member name: DYRK1B; format: functional
Dual specificity tyrosine-phosphorylation-regulated kinase 1B, sequence (Q9Y463 whole entry): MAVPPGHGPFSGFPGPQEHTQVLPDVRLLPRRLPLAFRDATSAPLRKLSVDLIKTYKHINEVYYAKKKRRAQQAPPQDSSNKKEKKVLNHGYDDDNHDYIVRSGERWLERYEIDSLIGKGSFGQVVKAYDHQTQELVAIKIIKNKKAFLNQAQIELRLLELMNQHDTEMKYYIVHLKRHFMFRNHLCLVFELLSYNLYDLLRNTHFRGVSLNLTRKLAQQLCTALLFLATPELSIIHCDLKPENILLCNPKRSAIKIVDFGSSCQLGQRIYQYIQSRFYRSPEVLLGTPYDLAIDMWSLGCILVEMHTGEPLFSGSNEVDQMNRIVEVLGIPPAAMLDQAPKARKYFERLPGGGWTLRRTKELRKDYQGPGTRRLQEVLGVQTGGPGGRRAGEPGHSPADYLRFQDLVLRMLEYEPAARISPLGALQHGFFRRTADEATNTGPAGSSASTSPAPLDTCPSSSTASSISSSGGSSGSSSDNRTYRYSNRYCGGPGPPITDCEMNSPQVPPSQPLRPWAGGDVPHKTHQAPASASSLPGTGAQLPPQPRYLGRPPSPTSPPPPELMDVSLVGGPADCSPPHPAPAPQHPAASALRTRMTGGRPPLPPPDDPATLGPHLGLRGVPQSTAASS

[35] = target: Cyclin-dependent kinase 7 (Homo sapiens, UniProt P50613); format: functional;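 also: value comes from a kinome-wide kinase profiling panel in which CDK7 is one member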
Aurora kinase B = Aurora kinase B (Homo sapiens, UniProt Q96GD4); format: functional
[36] = target: Serine/threonine-protein kinase PAK 4 (Homo sapiens, UniProt O96013); format: functional;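 also: value obtained within a kinome profiling panel in which PAK4 was one of the panel members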
[37] = target: Tyrosine-protein kinase receptor TYRO3 (Homo sapiens, UniProt Q06418); format: functional;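 also: TYRO3 value obtained as one member of a kinome-wide profiling panel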
[38] = target: Inhibitor of nuclear factor kappa-B kinase subunit epsilon (Homo sapiens, UniProt Q14164); experiment: Navigating the Kinome. Panel member name: IKBKE; format: functional
[39] = target: Macrophage colony-stimulating factor 1 receptor (Homo sapiens, UniProt P07333); format: functional;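 also: value comes from the Navigating the Kinome screening panel, CSF1R member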
Activin receptor type-1 = Activin receptor type-1 (Homo sapiens, UniProt Q04771); experiment: Navigating the Kinome. Panel member name: ACVR1; format: functional
Focal adhesion kinase 1 = Focal adhesion kinase 1 (Homo sapiens, UniProt Q05397); format: functional;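 also: measured as one member of a kinome panel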
[40] = target: Mitogen-activated protein kinase 8 (Homo sapiens, UniProt P45983); format: functional;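 also: value comes from one member of a kinome-wide kinase profiling panel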

## COc1ccc(-c2nnc(S)[nH]2)cc1
Phosphomannomutase 2
  IC50: > 100 µM (inactive)
[1]
  AC50: 0.008 µM (active)
[2]
  IC50: 1.22 µM (active)
[3]
  EC50: > 112 µM (not active)
Leucine aminopeptidase
  IC50: 39.5 µM (active)
[4]
  IC50: > 100 µM (inactive)
[5]
  IC50: 50.1 µM (active)
[6]
  IC50: > 99 µM (inactive)
[7]
  IC50: 1.19 µM (active)
[8]
  IC50: > 99 µM (inactive)
[9]
  IC50: 1.95 µM (active)

## O=C(CCC1CCCCC1)NCCN1C2=NC[C@H](Cc3ccccc3)N2C[C@H]1Cc1ccc(O)cc1
[10]
  IC50: > 20 µM (inactive)
[11]
  EC50: 13.4 µM (active)

## CCc1c(O)n(C2CCCCC2)c(SCC(=O)Nc2ccc(C)cc2)nc1=O
[12]
  IC50: 38.3 µM (active)
Prothrombin
  IC50: 45.4 µM (active)
[13]
  IC50: 20.6 µM (active)

## Cc1ccc(OCc2cc(C(=O)NCC(C)(C)N3CCOCC3)no2)cc1C
[14]
  EC50: 0.001 µM (active)

## C[C@@H]1CN([C@@H](C)CO)C(=O)c2cccc(NC(=O)Nc3cccc(Cl)c3Cl)c2O[C@H]1CN(C)S(=O)(=O)c1ccc2c(c1)OCCO2
[15]
  AC50: 68.8 µM (active)
INS1 [16]
  AC50: 29.3 µM (active)
INS1 [17]
  AC50: 15.2 µM (active)
INS1 [18]
  AC50: 71.3 µM (active)

## CC(C)(O)c1nnc2ccc(-c3c(-c4ccc(F)cc4F)nc4occn34)nn12
[19]
  Ki: 2.51 µM (active)
[20]
  Ki: 5.01 µM (active)
[21]
  Ki: 3.16 µM (active)

## CCn1c(=C(C#N)C(=O)O)sc(=CNc2ccccc2)c1=O
[22]
  Ki: 1.58 µM (active)
[23]
  Ki: 5.01 µM (active)
[24]
  Ki: 1.58 µM (active)
[25]
  Ki: 6.31 µM (active)
[26]
  Ki: 1.58 µM (active)
[27]
  Ki: 5.01 µM (active)

## Clc1cc2nnc(-c3ccccc3)n2cn1
[28]
  Ki: 12.6 µM (active)
[29]
  Ki: 39.8 µM (active)
[30]
  Ki: 15.8 µM (active)
[31]
  Ki: 50.1 µM (active)
[32]
  Ki: 63.1 µM (active)
[33]
  Ki: 63.1 µM (active)
[34]
  Ki: 79.4 µM (active)
[35]
  Ki: 20 µM (active)
Aurora kinase B
  Ki: 25.1 µM (active)

## Nc1nc2ncc(-c3ccccc3)cn2n1
[36]
  Ki: 25.1 µM (active)
[37]
  Ki: 50.1 µM (active)
[38]
  Ki: 63.1 µM (active)
[22]
  Ki: 50.1 µM (active)
[39]
  Ki: 100 µM (active)
[28]
  Ki: 79.4 µM (active)
[29]
  Ki: 25.1 µM (active)
[21]
  Ki: 50.1 µM (active)
[32]
  Ki: 15.8 µM (active)
Activin receptor type-1
  Ki: 39.8 µM (active)
Focal adhesion kinase 1
  Ki: 100 µM (active)
[34]
  Ki: 31.6 µM (active)
[40]
  Ki: 50.1 µM (active)

Reference: ChEMBL document CHEMBL1201862, “PubChem BioAssay data set” (2004)
